Read-outs that look alike come from different tables or passages of the source.

The experiment concerns the target MAT2A recombinant protein (Homo sapiens, UniProt P31153). Nature of the experiment: MAT2A inhibitory activity (malachite green colorimetric enzyme assay). It counts as biochemical. From the text:
MAT2A catalyzes the reaction of L-methionine and ATP to generate S-adenosylmethionine (SAM), inorganic phosphonic acid, and inorganic diphosphonic acid. Malachite green reacts with inorganic phosphonic acid to generate a green product, and the enzyme activity of MAT2A can be indirectly reflected by detecting the content of the inorganic phosphonic acid in a sample.
The test compounds were formulated using DMSO and diluted 1:3 diluted through 10 concentration points to give a final starting concentration in the reaction system of 1000 nM. The test compounds at different concentrations described above were transferred to a 384-well plate. Experimental buffer (50 mM HEPES pH 7.5, 50 mM KCl, 10 mM MgCl2, 10 mM DTT) was prepared. 2×MAT2A recombinant protein was prepared using the buffer and added to a 384-well plate. A mixed solution of 2×L-methionine and ATP was prepared using the buffer, and added to a 384-well plate. The enzymatic reaction was started, and the reaction was carried out at room temperature for 60 min. 20 μL of a colorimetric detection reagent was added to the above system, and incubated at room temperature for 15 min. The absorbance at 630 nm was measured. The inhibition rate of the compound on the enzyme activity was calculated, and the inhibition rate value and the logarithm value of the compound concentration were fitted using non-linear regression (dose response-variable slope) to give the IC50 value of the test compound.

Where [1] appears, read: IC50 score class, read-out: MAT2A Inhibition (score).

MAT2A recombinant protein, sequence (P31153 whole entry): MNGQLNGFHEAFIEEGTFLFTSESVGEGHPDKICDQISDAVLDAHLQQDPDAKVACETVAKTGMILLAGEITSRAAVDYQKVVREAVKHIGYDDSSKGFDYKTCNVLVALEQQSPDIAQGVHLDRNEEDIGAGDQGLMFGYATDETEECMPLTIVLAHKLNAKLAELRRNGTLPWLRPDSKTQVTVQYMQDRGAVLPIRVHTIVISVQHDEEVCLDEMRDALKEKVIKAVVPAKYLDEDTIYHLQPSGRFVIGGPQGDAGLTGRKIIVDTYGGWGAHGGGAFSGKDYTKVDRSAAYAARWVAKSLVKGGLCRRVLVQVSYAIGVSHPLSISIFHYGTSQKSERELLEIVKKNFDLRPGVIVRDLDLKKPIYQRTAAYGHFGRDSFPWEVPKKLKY

Consider `Cn1cnc2c(=O)n(-c3cccc4ccccc34)c3cc(Cl)c(C#N)cc3c21` [Compound B378], for which the IC50 is over 1000 nM under setting [1] and over 1000 nM (read-out: MAT2A Inhibition).

For the compound `Cn1cc2c(n1)c(=O)n(-c1cccc(OC(F)F)c1)c1nc(C(F)(F)F)ccc21` [Compound B190], the IC50 is, setting by setting: under setting [1], 100 to 1000 nM; (read-out: MAT2A Inhibition) 133 nM.

Regarding `CCn1cc2c(n1)c(=O)n(-c1ccc(OC)cc1)c1cc(Cl)ccc21` [Compound B11], the IC50 by setting is: under setting [1], over 1000 nM; (read-out: MAT2A Inhibition) over 1000 nM.

Turning to `COc1ccc(-n2c(=O)c3nn(C)cc3c3ccc(Cl)cc32)cc1` [Compound B185], the IC50 is, setting by setting: under setting [1], 100 to 1000 nM; (read-out: MAT2A Inhibition) 379 nM.

Turning to `Cn1cc2c(n1)c(=O)n(-c1ccc3ncoc3c1)c1cc(Cl)ccc21` [Compound B208], the IC50 by setting is: under setting [1], 100 to 1000 nM; (read-out: MAT2A Inhibition) 178 nM.

Consider `Cn1cc2c(n1)c(=O)n([C@H]1CC[C@H](O)CC1)c1cc(Cl)ccc21` [Compound B109], for which the IC50 is 100 to 1000 nM under setting [1] and 483 nM (read-out: MAT2A Inhibition).

`CCn1nc2c(=O)n(-c3cccnc3)c3cc(Cl)ccc3c2c1C(F)(F)F` [Compound B24]: the IC50 is 100 to 1000 nM under setting [1] and 115 nM (read-out: MAT2A Inhibition).

As for `O=c1c2nccnc2c2ccc(Cl)cc2n1-c1cccnc1` [Compound B50], the IC50 under setting [1] was 100 to 1000 nM and the IC50 (read-out: MAT2A Inhibition) was found to be 488 nM.

On to `CCn1cc2c(n1)c(=O)n(-c1cccnc1)c1cc(OC(F)(F)F)ccc21` [Compound B19], for which the IC50 under setting [1] is 100 to 1000 nM and the IC50 (read-out: MAT2A Inhibition) turned out to be 125 nM.

As for `CCn1cc2c(n1)c(=O)n(-c1ccncc1)c1cc(Cl)ccc21` [Compound B10], the IC50 is over 1000 nM under setting [1] and over 1000 nM (read-out: MAT2A Inhibition).

In the case of `Cn1cc2c(n1)c(=O)n(-c1cccnc1)c1nc(Cl)ccc21` [Compound B244], the IC50 is under 100 nM under setting [1] and 102 nM (read-out: MAT2A Inhibition).

`O=c1c2c(cnn2CC(F)F)c2ccc(Cl)cc2n1-c1cccnc1` [Compound B170]: the IC50 runs as follows: under setting [1], 100 to 1000 nM; (read-out: MAT2A Inhibition) 220 nM.

In the case of `COc1ccc(-n2cc3c(n2)c(=O)n(-c2ccccc2)c2nc(C(F)(F)F)ccc32)cn1` [Compound B231], the IC50 under setting [1] is under 100 nM and the IC50 (read-out: MAT2A Inhibition) amounted to 39.9 nM.

For the compound `Cn1cc2c(n1)c(=O)n(-c1ccc3ncoc3c1)c1nc(C(F)(F)F)ccc21` [Compound B209], the IC50 by setting is: under setting [1], 100 to 1000 nM; (read-out: MAT2A Inhibition) 122 nM.

Consider `COc1cccc(-n2c(=O)c3nn(C)cc3c3ccc(C(F)(F)F)nc32)c1` [Compound B184], for which the IC50 reads like this: under setting [1], 100 to 1000 nM; (read-out: MAT2A Inhibition) 174 nM.

Consider `Cn1cc2c(n1)c(=O)n(-c1c(F)cccc1F)c1nc(C(F)(F)F)ccc21` [Compound B195], for which the IC50 reads like this: under setting [1], under 100 nM; (read-out: MAT2A Inhibition) 20 nM.

As to `CCn1nc2c(=O)n(-c3cccnc3)c3cc(Cl)ccc3c2c1C(F)F` [Compound B25], the IC50 reads like this: under setting [1], under 100 nM; (read-out: MAT2A Inhibition) 92.8 nM.

Take `Cn1cc2c(n1)c(=O)n(-c1cccc(O)c1)c1cc(OC(F)(F)F)ccc21` [Compound B169]: the IC50 runs as follows: under setting [1], under 100 nM; (read-out: MAT2A Inhibition) 97.4 nM.

For the compound `COc1ccc(Cn2cc3c(n2)c(=O)n(-c2cccc4[nH]ncc24)c2cc(Cl)c(C#N)cc32)cc1` [Compound B286], the IC50 is, setting by setting: under setting [1], 100 to 1000 nM; (read-out: MAT2A Inhibition) 188 nM.

In the case of `Cn1cc2c(n1)c(=O)n(Cc1ccn[nH]1)c1cc(Cl)ccc21` [Compound B117], the IC50 runs as follows: under setting [1], under 100 nM; (read-out: MAT2A Inhibition) 41.9 nM.

Consider `Cn1cc2c(n1)c(=O)n(-c1cccc(NS(C)(=O)=O)c1)c1nc(C(F)(F)F)ccc21` [Compound B214], for which the IC50 reads like this: under setting [1], under 100 nM; (read-out: MAT2A Inhibition) 14.9 nM.

On to `Cn1cc2c(n1)c(=O)n(-c1ccn3ccnc3c1)c1cc(Cl)ccc21` [Compound B205], for which the IC50 is, setting by setting: under setting [1], under 100 nM; (read-out: MAT2A Inhibition) 71.1 nM.

As for `CCn1cc2c(n1)c(=O)n(-c1cccc(C(F)(F)F)c1)c1cc(Cl)ccc21` [Compound B15], the IC50 by setting is: under setting [1], over 1000 nM; (read-out: MAT2A Inhibition) over 1000 nM.
